Key:
histone H1 = assay: In vitro deacetylation of p300-acetylated [3H]-labelled H1; assay type: biochemical; details: H1 acetylated by p300-HAT with [3H]-AcCoA, incubated with different amounts of SirT1; plateau reached
Description: (§1) Detection of H1 acetylation was performed by using 4 μg of histone H1 (Upstate Biotechnology, Inc., Lake Placid, N.Y.) as an acetylated substrate for SirT1 in the NER. Deacetylation was determined by first performing a deacetylation assay using 20 and 40 μg of H1 and 6 nmol of SirT1. H1 was then isolated in the supernatant of chilled 5% perchloric acid, TCA precipitated (Albig, et al. (1998) FEBS Lett. 435:245-250), and resuspended in buffer C containing 100 mM KCl. Deacetylated H1 was then used in a subsequent NER. In vitro acetylation of H1 or recombinant H1b expressed in E. coli was carried out by incubating 10 μg H1 with 2 nmol baculovirus-generated p300 in the presence of 0.875 μCi [H^3]-Ac-CoA (Amersham, Piscataway, N.J.) in HAT buffer (75 mM Tris-HCl [pH 8.8], 135 mM NaCl). Deacetylation was carried out with the specified enzyme as above using 1 μg of the labeled Hi. […] Counts were then determined by liquid scintillation (PERKINELMER, Wellesley, Mass.) . […] In vivo H1 acetylation was analyzed by treating 293 cells for 18 hours in media containing 5 mM nicotinamide. H1 was purified as described (Albig, et al. (1998) supra) and analyzed in the NER. […]
(§2) SirT1 activity on histone H1 was directly tested in vitro. […] The same result was observed using recombinant human H1b; however, specificity was also scored in this assay using different SirT proteins.

recombinant human H1b = molecular target: T1, recombinant human H1b (Homo sapiens, UniProt P10412); assay: In vitro deacetylation of p300-acetylated recombinant H1b by SirT proteins; assay type: biochemical; details: equal NAD+-exchange units measured using acetylated BSA as substrate
T1 construct: Human histone H1b and H1° were inserted into HA-Pet30c; HA (N); made in house; host or cells: E. coli BL21 (DE3)
Description: as §1, §2

T1 sequence (P10412 2-219): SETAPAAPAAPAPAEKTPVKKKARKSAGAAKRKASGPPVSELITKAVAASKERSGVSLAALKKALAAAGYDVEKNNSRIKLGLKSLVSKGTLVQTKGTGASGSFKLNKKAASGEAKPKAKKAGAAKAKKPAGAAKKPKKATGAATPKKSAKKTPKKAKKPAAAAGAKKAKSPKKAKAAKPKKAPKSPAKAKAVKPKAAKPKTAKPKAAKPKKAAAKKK

**Q.** “SirT1: Human sirtuin type 1 protein, SEQ ID NO:1; purified recombinant, baculovirus-expressed” was tested. Which “total label in H1 released” value (histone H1) did it give?
**A.** up to 70%

**Q.** And the H1b deacetylation (recombinant human H1b)?
**A.** H1b deacetylation is specific for SirT1

Reference: US20070065890A1, “Method for promoting formation of facultative heterochromatin” (priority 2005, published 2007)
